Laboratory results taken from patent US8648085B2, “1, 5-dihydro-pyrazolo (3, 4-D) pyrimidin-4-one derivatives and their use as PDE9A mudulators for the treatment of CNS disorders” (Boehringer Ingelheim International GmbH, priority 2007, dated 2014).

Legend:
PDE9A = PDE9A (Homo sapiens, UniProt O76083); assay: PDE enzymatic activity assay (SPA), PDE9A; type: biochemical; design: made in house; host or cells: SF9 insect cells (crude lysate used as enzyme source); details: cGMP substrate, for illustrative purposes; for inhibition at 10 µM: 10 micromolar; for IC50: given as ranges
Sequence of PDE9A (O76083 whole entry): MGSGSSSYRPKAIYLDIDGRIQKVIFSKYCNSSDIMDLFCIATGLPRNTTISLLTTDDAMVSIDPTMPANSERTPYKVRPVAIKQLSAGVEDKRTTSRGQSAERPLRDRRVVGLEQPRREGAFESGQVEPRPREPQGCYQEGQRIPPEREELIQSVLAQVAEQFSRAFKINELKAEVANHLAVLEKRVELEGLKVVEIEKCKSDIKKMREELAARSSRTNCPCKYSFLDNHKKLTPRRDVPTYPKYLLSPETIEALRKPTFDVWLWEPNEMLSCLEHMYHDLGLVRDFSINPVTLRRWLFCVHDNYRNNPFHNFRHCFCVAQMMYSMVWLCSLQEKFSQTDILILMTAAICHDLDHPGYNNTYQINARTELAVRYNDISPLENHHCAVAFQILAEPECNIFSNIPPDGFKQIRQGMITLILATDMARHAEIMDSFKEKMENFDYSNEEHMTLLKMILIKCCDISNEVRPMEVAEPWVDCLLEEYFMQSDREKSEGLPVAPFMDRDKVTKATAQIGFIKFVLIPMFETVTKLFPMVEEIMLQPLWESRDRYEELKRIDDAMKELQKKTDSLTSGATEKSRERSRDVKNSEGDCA
Description: (§1) The PDE enzymatic activity assays were run as SPA, in general according to the protocol of the manufacturer (Amersham Biosciences, product number: TRKQ 7100). As enzyme source, lysate (PBS with 1% Triton X-100 supplemented with protease inhibitors, cell debris removed by centrifugation at 13.000 rpm for 30 min) of SF 9 cell expressing the human PDE of interest was used. The total protein amount included in the assay varied upon infection and production efficacy of the SF9 cells and lay in the range of […].
(§2) In general, the assay conditions were as follows: • total assay volume: 40 μl • protein amount: 0.1-50 ng • substrate concentration (cGMP or cAMP): 20 nM; ˜1 mCi/l • incubation time: 60 min at room temperature • final DMSO concentration: 1%
(§3) The assays were run in 384-well format. The test reagents as well as the enzyme and the substrate were diluted in assay buffer. The assay buffer contained 50 mM Tris, 8.3 mM MgCl2, 1.7 mM EGTA, 0.1% BSA, 0.05% Tween 20; the pH of assay buffer was adjusted to 7.5. In case activity of PDE1C was analysed, 50 nM Calmodulin and 3 mM CaCl2 were included in the assay buffer. In case PDE9 activity was analyzed, the reaction was stopped by applying a PDE9 specific inhibitor (e.g. compounds according to WO2004/099210). PDE1C was analysed with cAMP as substrate, and PDE9 was analyzed with cGMP as substrate.
Calculation of % Inhibition:
The activity of the positive control (minus the negative control=background) is set to 100% and activity in the presence of test compound is expressed relative to these 100%.
Within this setting, an inhibition above 100% might be possible due to the nature of the variation of the positive control within the assay, however, in this case the reported % inhibition had been adjusted to 100%.
(§4) IC50 can be calculated in a conventional way, eventually with the help of GraphPadPrism or other suited software setting the positive control as 100 and the negative control as 0. For calculation of IC50 usually 8 dilutions of the test compound ([…]) are to be selected and tested following the aforementioned protocol.

PDE1C = target: T1, PDE1C (Homo sapiens, UniProt Q14123); assay: PDE enzymatic activity assay (SPA), PDE1C, cAMP as substrate; type: biochemical; details: ratio IC50 PDE1C / IC50 PDE9A; for illustrative purposes
T1 construct: made in house; host or cells: SF9 insect cells (crude lysate used as enzyme source)
Description: as §1, §2, §3, §4

Row | Structure (SMILES) | inhibition at 10 µM (PDE9A) [%] | IC50 (PDE9A) [nM] | Selectivity = IC50 PDE 1C/IC50 PDE9A (both nanomolar) (PDE1C)
1 | O=c1[nH]c(Cc2ccccc2OC(F)(F)F)nc2c1cnn2-c1cccc(F)c1 [Example 26, 1-(3-Fluoro-phenyl)-6-(2-trifluoromethoxy-benzyl)-1,5-dihydro-pyrazolo[3,4-d]pyrimidin-4-one] | 51 | > 500 | 24
2 | CCOc1cc(Cl)c(-n2ncc3c(=O)[nH]c(Cc4ccccc4OC(F)(F)F)nc32)cc1C [Example 27, 1-(2-Chloro-4-ethoxy-5-methyl-phenyl)-6-(2-trifluoromethoxy-benzyl)-1,5-dihydro-pyrazolo [3,4-d]pyrimidin-4-one] | 67 | > 500 | 14
3 | Cc1c(F)cccc1-n1ncc2c(=O)[nH]c(Cc3ccccc3OC(F)(F)F)nc21 [Example 28, 1-(3-Fluoro-2-methyl-phenyl)-6-(2-trifluoromethoxy-benzyl)-1,5-dihydro-pyrazolo[3,4-d]pyrimidin-4-one] | 96 | 10 to 500 | 8
4 | COc1c(F)cccc1-n1ncc2c(=O)[nH]c(Cc3ccccc3OC(F)(F)F)nc21 [Example 30, 1-(2-Methoxy,3-fluoro-phenyl)-6-(2-trifluoromethoxy-benzyl)-1,5-dihydro-pyrazolo[3,4-d]pyrimidin-4-one] | 95 | 10 to 500 | 8
5 | O=C(O)c1cccc(-n2ncc3c(=O)[nH]c(Cc4ccccc4OC(F)(F)F)nc32)c1 [Example 30-1, 1-(3-Carbox-phenyl)-6-(2-trifluoromethoxy-benzyl)-1,5-dihydro-pyrazolo[3,4-d]pyrimidin-4-one] | 101 | 10 to 500 | 55
6 | CC(=O)Nc1cccc(-n2ncc3c(=O)[nH]c(Cc4ccccc4OC(F)(F)F)nc32)c1 [Example 30-5, 1-(3-Acetamido-phenyl)-6-(2-trifluoromethoxy-benzyl)-1,5-dihydro-pyrazolo[3,4-d]pyrimidin-4-one] | 97 | 10 to 500 | 26

Next, values leading:

Row | inhibition at 10 µM (PDE9A) [%] | IC50 (PDE9A) [nM] | Selectivity = IC50 PDE 1C/IC50 PDE9A (both nanomolar) (PDE1C) | Structure (SMILES)
7 | 58 | > 500 | 24 | O=c1[nH]c(Cc2ccccc2OC(F)(F)F)nc2c1cnn2-c1c(Cl)cccc1Cl [Example 25, 1-(2,6-Dichloro-phenyl)-6-(2-trifluoromethoxy-benzyl)-1,5-dihydro-pyrazolo[3,4-d]pyrimidin-4-one]
8 | 89 | 10 to 500 | 9 | O=c1[nH]c(Cc2ccccc2OC(F)(F)F)nc2c1cnn2-c1cccc(Cl)c1Cl [Example 29, 1-(2,3-Dichloro-phenyl)-6-(2-trifluoromethoxy-benzyl)-1,5-dihydro-pyrazolo[3,4-d]pyrimidin-4-one]
9 | 100 | 10 to 500 | 55 | O=C(O)c1ccc(Cl)c(-n2ncc3c(=O)[nH]c(Cc4ccccc4OC(F)(F)F)nc32)c1 [Example 30-2, 1-(2-Chloro-5-carbox-phenyl)-6-(2-trifluoromethoxy-benzyl)-1,5-dihydro-pyrazolo[3,4-d]pyrimidin-4-one]
10 | 100 | 10 to 500 | 14 | O=c1[nH]c(Cc2ccccc2OC(F)(F)F)nc2c1cnn2-c1cc(O)ccc1Cl [Example 30-3, 1-(2-Chloro-5-hydroxy-phenyl)-6-(2-trifluoromethoxy-benzyl)-1,5-dihydro-pyrazolo[3,4-d]pyrimidin-4-one]
11 | 99 | 10 to 500 | 3 | O=c1[nH]c(Cc2ccccc2OC(F)(F)F)nc2c1cnn2-c1cccc(F)c1F [Example 30-4, 1-(2,3-Difluoro-phenyl)-6-(2-trifluoromethoxy-benzyl)-1,5-dihydro-pyrazolo[3,4-d]pyrimidin-4-one]
